Read-outs that look alike come from different tables or passages of the source.
Experiments:
[1] = test system: NIH-3T3 (mouse embryonic fibroblasts) cells; experiment: MTT assay, NIH-3T3 normal cells; type: cell-based; conditions: 48 h of exposure, mean ± SD
Procedure: (§1) HT-29 (colon cancer), HeLa (cervical cancer), and NIH-3T3 (mouse embryonic fibroblasts) cells were maintained in DMEM supplemented with 10% FBS, penicillin–streptomycin solution in a humidified (95% humidity) CO2 incubator (5% CO2). Thereafter, cells were harvested from the logarithmic phase and seeded into a 96-well plate at a concentration of 8 × 10^4 cells per well. After overnight seeding, cells were treated with different concentrations (2.5, 5, 10, 20, and 50 μM) of the tested ligands and vanadium complexes (H2L^1–4 and 1–4) for 48 h. The compounds’ stock solutions were prepared in DMSO. DMEM was used to prepare the final working concentration of the compounds, so that the final amount of DMSO is less than 2%. The effect of the complexes on the viability of the cells was evaluated through MTT dye reduction assay by measuring the optical density at 595 nm.[93] DMSO alone, used to dissolve the complexes, was also employed for the control group treatment.

[2] = test system: HeLa (cervical cancer) cells; experiment: MTT assay, HeLa cells; type: cell-based; conditions: for IC50: 48 h of exposure, mean ± SD; for selectivity index (SI), HeLa: NIH-3T3 vs HeLa, 48 h
Procedure: as §1

[3] = test system: HT-29 (colon cancer) cells; experiment: MTT assay, HT-29 cells; type: cell-based; conditions: for IC50: 48 h of exposure, mean ± SD; for selectivity index (SI), HT-29: NIH-3T3 vs HT-29, 48 h
Procedure: as §1

[4] = test system: HT-29 (colon cancer) cells; design: method as in PMID 36598160, doi:10.1002/aoc.6082; conditions: identical experimental conditions; cited from earlier work
[5] = test system: HeLa (cervical cancer) cells; design: method as in PMID 36598160, doi:10.1002/aoc.6082; conditions: identical experimental conditions; cited from earlier work
[6] = Solution stability (ESI-MS, EPR); type: physicochemical
Procedure: The stability of all complexes was established in water containing solvents through UV–vis, ESI mass spectrometry, and NMR and EPR spectroscopy.
The aged solutions in MeOH/H2O 90/10 (v/v) were diluted in CH3CN and analyzed by ESI-MS (concentration 50 μM). For all complexes, the most important species remained those detected at t = 0 h, i.e., the non-oxido V^IV complexes [V^IV(L^1–4)2]; the V^V species [V^V(L^1–4)2]^+, derived from the oxidation of the previous one, and [V^VO2(L^1–4)]^− were also detected. At these experimental conditions, the non-oxido V^IV complexes seem to be stable after 24 h with a slight increase in the oxidation process, as indicated by the increment of the relative amount of […] (Figure S14). […] This was considered during the docking studies.
(§2) EPR spectra were recorded 24 h after the dissolution of the most soluble compound, [V^IV(L^1)2] (1), in DMSO and in an aqueous solution in phosphate buffer at pH 7.4 (Figure 8). […] The spectrum in DMSO is very similar to that in CH2Cl2 (cfr. traces in Figures 6 and 8), with the coexistence of fac (1a) and mer (1b) isomers.

[7] = test system: HT-29 cells; experiment: Annexin V-FITC/PI apoptosis assay by flow cytometry; type: cell-based; conditions: 48 h, control 9%
Procedure: The apoptotic population induced by complexes 1 and 2 in HT-29 cells was evaluated using Annexin V-FITC Apoptosis Detection Kit (Abgenex) by a flow cytometer (BD Accuri C6 flow cytometer; BectoneDickinson).[125] HT-29 cells (3 × 10^5 cells/well) were cultured in a 6-well plate for 24 h. After the cells were adhered, different concentrations (5 and 10 μM) of the tested complexes were treated and incubated for further 48 h. Subsequently, the cells were collected by trypsinization and then suspended in 1X binding buffer. Finally, the suspension was stained with 5 μL of Annexin V and PI at room temperature and incubated for 15 min in the dark. Then, the samples were immediately analyzed under a BD Accuri C6 flow cytometer.

[8] = target: T1, BSA (Bos taurus, UniProt P02769); experiment: Fluorescence quenching titration of BSA with the complexes; type: binding, bovine; conditions: room temperature
T1 construct: purchased Sigma-Aldrich
T1 sequence (P02769 25-607): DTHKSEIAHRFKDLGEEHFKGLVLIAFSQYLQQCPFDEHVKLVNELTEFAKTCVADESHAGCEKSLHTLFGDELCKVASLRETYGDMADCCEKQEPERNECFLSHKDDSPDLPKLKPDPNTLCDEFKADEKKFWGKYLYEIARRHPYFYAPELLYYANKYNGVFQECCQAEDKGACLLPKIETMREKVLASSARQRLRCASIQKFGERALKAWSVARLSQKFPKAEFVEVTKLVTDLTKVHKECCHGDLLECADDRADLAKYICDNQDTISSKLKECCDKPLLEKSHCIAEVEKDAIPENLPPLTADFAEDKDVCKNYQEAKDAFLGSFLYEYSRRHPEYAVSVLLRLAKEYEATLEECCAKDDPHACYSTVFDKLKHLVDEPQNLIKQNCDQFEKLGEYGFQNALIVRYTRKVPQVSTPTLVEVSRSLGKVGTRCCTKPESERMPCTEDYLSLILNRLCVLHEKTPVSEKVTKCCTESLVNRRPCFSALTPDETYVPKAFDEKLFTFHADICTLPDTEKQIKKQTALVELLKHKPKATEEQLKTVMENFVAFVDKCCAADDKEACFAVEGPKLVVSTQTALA
Procedure: The interaction between complexes 1–4 and BSA was studied using fluorescence quenching spectroscopy on a PerkinElmer LS 55 instrument. The instrumental response was corrected by means of a correction function provided by the manufacturer. The fluorescence experiments were carried out at room temperature and are steady-state measurements. Electronic absorption spectra were measured on a PerkinElmer Lambda35.
Fatty acid free BSA stock solution was prepared in PBS buffer (10 mM, pH 7.4), and the concentration was determined spectrophotometrically considering the extinction coefficient 44,309 M^–1 cm^–1 at 280 nm.[107] Stock solutions of the complexes (ca. 8 × 10^–4 M) were prepared in DMSO and further diluted (1:10) immediately before running the experiments. […] Fluorescence emission spectra were measured at room temperature with λex = 295 nm between 310 and 500 nm. Fluorescence spectra containing the same amount of complex but no BSA were recorded and subtracted from each corresponding emission spectrum of the mixtures. […] UV–vis spectra were measured for each solution, and the absorbance at excitation and emission wavelengths were used to make corrections for inner filter effects and reabsorption.[108],[109]
The Stern–Volmer equation was used to fit the fluorescence quenching data[109] […]

[9] = Solubility observations; type: physicochemical
Description: The non-oxido vanadium(IV) complexes (1–4) were synthesized by the reaction of tridentate dibasic ONS donor dithiocarbazates H2L^1–4 with [V^IVO(acac)2] in a 2:1 molar ratio in CH3CN medium (Scheme 1). […] They are soluble in polar aprotic solvents like DMSO, DMF, DCM, THF, and CH3CN and are partially soluble in aqueous media. The solid-state characterization of all compounds was done through elemental analysis, FTIR, and also with single-crystal X-ray diffraction studies of 1–3, while the solution phase characterization was carried out through UV–vis, ESI-MS spectrometry, and EPR spectroscopy. Details of all the characterizations are described in the following sections.
as §2

IC50 ([2]; Homo sapiens, HeLa) [µM] | IC50 ([3]; Homo sapiens, HT-29) [µM] | n (equivalent binding sites of BSA) ([8]; PBS pH 7.4) | KBC (binding constant) ([8]; PBS pH 7.4, from double logarithm plot) | solubility in phosphate buffer ([9]; pH 7.4) | IC50 [2] [µM] | IC50 [3] [µM] | SMILES | IC50 ([1]; Mus musculus, NIH3T3) [µM] | selectivity index (SI), HeLa [2] | selectivity index (SI), HT-29 [3] | IC50 [4] [µM] | IC50 [5] [µM] | stability by EPR in DMSO ([6]; DMSO, after 24 h) | stability by EPR in aqueous solution ([6]; phosphate buffer pH 7.4, after 24 h) | apoptotic cells (sum of early and late apoptosis) ([7]; 5 μM) [%] | apoptotic cells (sum of early and late apoptosis) ([7]; 10 μM) [%] | IC50 [1] [µM] | behaviour in minimum essential medium (MEM, no FBS) ([9]; MEM instead of water)
15.7 ± 1.9 | 14.7 ± 0.6 | – | – | – | – | – | CCN(CC)c1ccc(/C=N/NC(=S)SC)c(O)c1 [H2L^1] | 23.5 ± 0.6 | 1.5 | 1.6 | – | – | – | – | – | – | – | –
– | – | – | – | – | – | – | N.N.[Cl][Pt][Cl] [cisplatin] | – | – | – | 32.7 ± 0.6 | 25.5 ± 0.8 | – | – | – | – | – | –
– | – | 0.89 | 2.6 × 10^4 | not completely soluble | 9.3 ± 0.2 | 7.2 ± 0.6 | CCN(CC)c1ccc2c(c1)[O][V]1([O]c3cc(N(CC)CC)ccc3C=NN=C(SC)[S]1)[S]C(SC)=NN=C2 (centres unmarked) [complex 1, [V^IV(L^1)2]] | – | 0.9 | 1.2 | – | – | the pattern remains substantially unaltered, even though a significant decrease in the spectral intensity is detected | the resonances of [V^IV(L^1)2] are clearly visible | 15.8 | 48.8 | 8.7 ± 1.1 | precipitation was evident from the beginning

Source: PMC10367067, “A Series of Non-Oxido V^IV Complexes of Dibasic ONS Donor Ligands: Solution Stability, Chemical Transformations, Protein Interactions, and Antiproliferative Activity” (Inorganic Chemistry, 2023)
